The results in this text go back to patent US20240390377A1, “COMPOSITION FOR THE PREVENTION OR TREATMENT OF NEURODEGENERATIVE OR MOTOR NEURON DISEASES COMPRISING HALOFUGINONE AS AN ACTIVE INGREDIENT” (CURAMYS CO., LTD., priority 2022, published 2024).

The assay has as its system G93A mutant SOD1 transgenic mice. In words: ALS animal model disease progression, survival and motor function (rotarod) analysis. It is filed as in vivo, mouse. The protocol: Specifically, all animal experiments were conducted according to the guidelines of the Animal Care Committee of Seoul National University Animal Hospital (IACUC, approval number SNU-200220-1-2). Transgenic mice expressing the human G93A mutant SOD1 gene (B6SJL-Tg(SOD1-G93A) 1 Gur/J) as an ALS animal model were purchased from Jackson Laboratory (Bar Harbor, ME, USA). Male transgenic ALS mice expressing mtSOD1(G93A) H1 strain (Jackson Laboratories, Bar Harbor, ME, USA) were crossed with female mice (B6/SJLF1). The mice were housed under standard conditions with a constant temperature of 22±1° C., relative humidity of 40%, and a 12-hour light-dark cycle, with ad libitum access to food and water. Genotypes were confirmed by polymerase chain reaction (PCR) using primers shown in [Table 1] below, and the number of transgene copies was confirmed. Next, G93A mutant SOD1 transgenic mice were divided into three stages: 60 days old (asymptomatic), 90 days old (early symptom), and 120 days old (late symptom) depending on the time point. A total of 96 mice were used in the experiment. As a control group, non-transgenic mice were used.
As a control group, non-transgenic mice were injected intraperitoneally (i.p.) with vehicle (DMSO) in the same manner for the same period of time.
Specifically, the clinical condition and body weight of the mice in Example 6 were assessed three times a week starting from day 83 post-birth. Disease onset was defined as tremor of the limbs when the mouse's tail was suspended in the air, reported to be clinically associated with upper motor neuron system [S. Nagano, Y. Fujii, T. Yamamoto, M. Taniyama, K. Fukada, T. Yanagihara, et al. The efficacy of trientine or ascorbate alone compared to that of the combined treatment with these two agents in familial amyotrophic lateral sclerosis model mice Exp Neurol, 179 (2003), pp. 176-180]. The endpoint age was determined as the inability of the animal to right itself within 30 seconds after being placed on a flat surface on its side. At this point, the mouse was considered deceased [C. Zheng, I. Nennesmo, B. Fadeel, J. I. Henter Vascular endothelial growth factor prolongs survival in a transgenic mouse model of ALS Ann Neurol, 56 (2004), pp. 564-567]. The motor function of mice was assessed using a rotarod apparatus (JD-A-07M, JEUNG DO BIO & PLANT CO., LTD). Mice were trained for one week prior to recording. The mice were placed on a rotarod that started at a speed of 4 rpm and accelerated up to 40 rpm over 300 seconds, increasing by 1 rpm approximately every 8.3 seconds. The rotarod test was measured on average three times per measurement, three times per week from 83 days of age, until it was not possible to stay in rotarod for more than 10 seconds three consecutive times.
All data were expressed as the mean and the standard error of the mean (SEM) based on at least three independent experiments and as the ratio of control values. The significance of differences between groups was analyzed by Student's t-test or one-way ANOVA followed by Tukey's post host comparison. A p-value of <0.05 was considered statistically significant. The cumulative probability of symptom onset, rotarod failure, and disease endpoint was analyzed using a Kaplan Meier curve. All analyses were performed using GraphPad Prism. […]
A general note: The rotarod test checks motor coordination on a turning rod.

[1] abbreviates: 250 μg/kg i.p. three times a week from 10 weeks of age, Hal TG vs DMSO TG group (FIG. 6a).

SMILES strings stand for the structures.

Take `O=C(C[C@H]1NCCC[C@@H]1O)Cn1cnc2cc(Br)c(Cl)cc2c1=O` (racemic) [halofuginone]: under setting [1], the body weight entry is reported as “no significant difference” and the “time in the rotarod” value is “significantly longer”. The compound also returned an onset of symptoms (250 μg/kg i.p. three times a week, mean±SD, DMSO TG group 94.2±5.7) of 113±3.6. For the same compound, for the setting “250 μg/kg i.p. three times a week, mean±SD, DMSO TG group 116.5±3.1, p<0.001”, the “age of reaching rotarod failure” value worked out at 124.3±3.5. This compound also gave an endpoint age (250 μg/kg i.p. three times a week, mean±SD, DMSO TG group 129.3±7.6) of 141.8±9.8.
